Assay results: publication PMC4766392, “Identification and Characterization of the Glucose-6-Phosphate Dehydrogenase Gene Family in the Para Rubber Tree, Hevea brasiliensis” (Frontiers in Plant Science, 2016)

Legend:
Experiment in all cases: NADPH formation at […] nm, commercial kit, E. coli supernatant
Assay type in all cases: biochemical
Conditions in all cases: 25°C, MBP fusion, empty-vector control
HbG6PDH2 = target: T1, HbG6PDH2 (Hevea brasiliensis, UniProt A0A068LJJ9)
T1 construct: gene G6PDH-2; forward primer starts at ATGGCGCCCCTTTC

HbG6PDH4 = target: T2, HbG6PDH4 (Hevea brasiliensis, UniProt A0A068LJB4)
T2 construct: gene G6PDH-4; primer with start codon ATGTCGATGTCAATTTC

HbG6PDH3 = target: T3, HbG6PDH3 (Hevea brasiliensis, UniProt A0A068LJY6)
T3 construct: gene G6PDH-3; primer with start codon ATGGGTTCGGGTCAGTGG

HbG6PDH1 = target: T4, HbG6PDH1 (Hevea brasiliensis, UniProt A0A068LLN2)
T4 construct: gene G6PDH-1; forward primer starts at ATGCCAAGAAAATATGG

[1] = glucose-6-phosphate as co-substrate

T1 sequence (A0A068LJJ9 entry or part of it): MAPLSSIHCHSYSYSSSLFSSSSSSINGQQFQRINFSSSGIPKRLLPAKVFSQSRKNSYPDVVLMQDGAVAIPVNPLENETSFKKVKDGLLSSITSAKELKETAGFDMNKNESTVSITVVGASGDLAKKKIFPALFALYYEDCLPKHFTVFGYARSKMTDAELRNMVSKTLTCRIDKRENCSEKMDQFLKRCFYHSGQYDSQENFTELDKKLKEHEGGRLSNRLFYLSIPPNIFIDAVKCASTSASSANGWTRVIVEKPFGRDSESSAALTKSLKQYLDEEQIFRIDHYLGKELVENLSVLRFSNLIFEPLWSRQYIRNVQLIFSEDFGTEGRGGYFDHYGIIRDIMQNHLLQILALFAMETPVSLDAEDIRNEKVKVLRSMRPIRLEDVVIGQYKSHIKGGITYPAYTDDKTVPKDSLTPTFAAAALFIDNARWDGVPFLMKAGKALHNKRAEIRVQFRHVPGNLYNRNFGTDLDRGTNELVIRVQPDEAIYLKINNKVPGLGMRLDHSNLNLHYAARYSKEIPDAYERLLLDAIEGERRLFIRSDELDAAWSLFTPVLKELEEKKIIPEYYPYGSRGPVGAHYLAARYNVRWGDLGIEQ
T2 sequence (A0A068LJB4 entry or part of it): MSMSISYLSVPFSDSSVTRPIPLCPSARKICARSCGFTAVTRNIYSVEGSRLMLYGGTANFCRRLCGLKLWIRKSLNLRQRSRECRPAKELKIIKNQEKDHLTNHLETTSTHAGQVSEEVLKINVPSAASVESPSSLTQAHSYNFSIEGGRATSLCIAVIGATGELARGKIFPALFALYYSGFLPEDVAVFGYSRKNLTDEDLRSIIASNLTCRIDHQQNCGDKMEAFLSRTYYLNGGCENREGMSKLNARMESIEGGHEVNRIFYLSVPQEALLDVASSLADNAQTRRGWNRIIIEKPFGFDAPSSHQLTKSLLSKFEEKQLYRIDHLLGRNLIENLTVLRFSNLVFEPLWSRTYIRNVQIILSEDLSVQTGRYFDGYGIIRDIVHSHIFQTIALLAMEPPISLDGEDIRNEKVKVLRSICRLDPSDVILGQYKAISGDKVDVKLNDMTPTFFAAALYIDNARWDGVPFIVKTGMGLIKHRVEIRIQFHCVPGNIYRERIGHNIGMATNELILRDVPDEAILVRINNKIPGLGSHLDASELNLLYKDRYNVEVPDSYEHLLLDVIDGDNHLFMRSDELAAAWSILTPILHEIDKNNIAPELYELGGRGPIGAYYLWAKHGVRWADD
T3 sequence (A0A068LJY6 entry or part of it): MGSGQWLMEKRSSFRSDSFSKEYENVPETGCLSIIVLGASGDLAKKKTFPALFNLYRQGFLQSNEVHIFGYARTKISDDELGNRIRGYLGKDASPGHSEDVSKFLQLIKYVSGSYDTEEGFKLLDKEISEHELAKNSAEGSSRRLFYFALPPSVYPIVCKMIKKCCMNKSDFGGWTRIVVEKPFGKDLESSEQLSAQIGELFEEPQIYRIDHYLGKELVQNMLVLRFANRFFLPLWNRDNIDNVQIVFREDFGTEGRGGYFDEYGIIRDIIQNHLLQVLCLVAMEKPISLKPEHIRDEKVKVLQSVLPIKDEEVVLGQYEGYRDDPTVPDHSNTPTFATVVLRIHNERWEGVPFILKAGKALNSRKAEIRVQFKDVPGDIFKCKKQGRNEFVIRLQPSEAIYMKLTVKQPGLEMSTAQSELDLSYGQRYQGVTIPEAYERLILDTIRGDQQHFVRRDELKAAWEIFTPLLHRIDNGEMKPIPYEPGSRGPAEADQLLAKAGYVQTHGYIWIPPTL
T4 sequence (A0A068LLN2 entry or part of it): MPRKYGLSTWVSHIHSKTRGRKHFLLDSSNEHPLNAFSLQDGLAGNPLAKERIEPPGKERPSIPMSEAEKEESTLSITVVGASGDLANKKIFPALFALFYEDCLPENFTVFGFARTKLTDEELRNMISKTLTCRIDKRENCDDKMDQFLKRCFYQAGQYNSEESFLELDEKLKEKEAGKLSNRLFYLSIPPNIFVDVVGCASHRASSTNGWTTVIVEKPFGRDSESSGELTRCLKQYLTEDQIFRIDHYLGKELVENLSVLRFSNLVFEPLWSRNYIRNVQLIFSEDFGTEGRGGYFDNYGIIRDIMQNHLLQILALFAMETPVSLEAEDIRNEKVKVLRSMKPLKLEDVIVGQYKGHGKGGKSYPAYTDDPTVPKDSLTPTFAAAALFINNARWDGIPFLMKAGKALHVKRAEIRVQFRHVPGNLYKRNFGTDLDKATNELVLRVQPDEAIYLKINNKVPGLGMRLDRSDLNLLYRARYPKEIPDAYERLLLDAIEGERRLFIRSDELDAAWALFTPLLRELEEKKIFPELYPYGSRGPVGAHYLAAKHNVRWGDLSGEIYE

Structure (SMILES)	NADPH formation at 340 nm, commercial kit, E. coli supernatant (HbG6PDH2; [1])	NADPH formation at 340 nm, commercial kit, E. coli supernatant (HbG6PDH4; [1])	NADPH formation at 340 nm, commercial kit, E. coli supernatant (HbG6PDH3; [1])	NADPH formation at 340 nm, commercial kit, E. coli supernatant (HbG6PDH1; [1])	NADPH formation at 340 nm, commercial kit, E. coli supernatant (HbG6PDH2; NADP+ as co-substrate)	NADPH formation at 340 nm, commercial kit, E. coli supernatant (HbG6PDH4; NADP+ as co-substrate)	NADPH formation at 340 nm, commercial kit, E. coli supernatant (HbG6PDH3; NADP+ as co-substrate)	NADPH formation at 340 nm, commercial kit, E. coli supernatant (HbG6PDH1; NADP+ as co-substrate)
NC(=O)c1ccc[n+]([C@@H]2O[C@H](COP(=O)(O)OP(=O)(O)OC[C@H]3O[C@@H](n4cnc5c(N)ncnc54)[C@H](OP(=O)(O)O)[C@@H]3O)[C@@H](O)[C@H]2O)c1 [NADP^+]	all four HbG6PDH genes encode enzymatically active G6PDHs	all four HbG6PDH genes encode enzymatically active G6PDHs	all four HbG6PDH genes encode enzymatically active G6PDHs	all four HbG6PDH genes encode enzymatically active G6PDHs	–	–	–	–
O=P(O)(O)OC[C@H]1OC(O)[C@H](O)[C@@H](O)[C@@H]1O (some centres unmarked) [glucose-6-phosphate]	–	–	–	–	all four HbG6PDH genes encode enzymatically active G6PDHs	all four HbG6PDH genes encode enzymatically active G6PDHs	all four HbG6PDH genes encode enzymatically active G6PDHs	all four HbG6PDH genes encode enzymatically active G6PDHs
